Experimental findings from patent publication US20220151229A1, “Synergistic Herbicidal Combinations” (Clariant International Ltd., priority 2019, published 2022) are described below.

Common to all, as to assay type: in vivo
Test [1] has as its system Solanum nigrum - SOLNI. In words: Greenhouse post-emergence herbicide trial, Solanum nigrum. The conditions noted are these: Iodosulfuron-methyl-sodium 10 g Al/ha. The source says: (§1) Standard post emergence herbicide application procedures were used, as described below, to apply inventive compounds in combination with sulfonylurea herbicides.
(§2) Seed of monocotyledonous and dicotyledonous harmful plants such as Brassica napus (BRSNW) Abutilon theophrasti (ABUTH), Alopecurus myosuroides (ALOMY), Amaranthus retroflexus (AMARE), Digitaria Sanguinalis (DIGSA), Echinochloa crus-galli (ECHCG), Erigeron canadensis (ERICA), Galium aparine (GALAP), Lolium perenne (LOLPE), Sectaria viridis (SETVI), Solanun nigrum (SOLNI), Viola arvensis (VIOAR) were sowed in 18 cm^2 pots. The plants were placed in a greenhouse under controlled environmental conditions, and sub-irrigation. About one week after emergence, seedlings were thinned as needed, including removal of any unhealthy or abnormal plants, to create a uniform series of test pots.
(§3) The plants were maintained for the duration of the test in the greenhouse, where they received a mean of 70 μmol m-2 s-1 of light per day/night. Temperatures averages about 24° C. during the day and about 20° C. during the night. Plants were sub-irrigated throughout the test to ensure adequate soil moisture levels.
(§4) Pots were assigned to different treatment in a randomized experimental design. A set of pots was left untreated as a reference against which effects of the treatments could later be evaluated. Application of tested formulations was made in a spray cabin model 01S-15E designed by CheckTec using the following parameters: • Two edge nozzle Lechler OC2, 200 L/ha, 3 bars. • Two edge nozzle Lechler OC3, 500 L/ha, 3 bars.
(§5) The distance of the nozzle from the plants was between 50 to 53 cm. and the nozzle spacing was 50 cm.
(§6) After treatment, pots were returned to the greenhouse until ready for evaluation. Evaluations were performed at different times after application (DAT: days after treatment), depending on the experiment.
(§7) For evaluation of herbicidal effectiveness, all plants in the test were examined by a single technician, who recorded percent control, a visual measurement of the effectiveness of each treatment by comparison with untreated plants. […] The reported % control values represent the average for all replicates of each treatment.
(§8) Iodosulfuron-methyl-sodium and Nicosulfuron were applied as dilutions of the active ingredient in water.

The test system of test [2] is Brassica napus - BRSNW. Briefly: Greenhouse post-emergence herbicide trial, Brassica napus. The settings on record: 200 L/ha, Iodosulfuron-methyl-sodium 10 g Al/ha.
Description: as §1, §2, §3, §4, §5, §6, §7, §8

Test [3] has as its system Lolium perenne - LOLPE. Briefly: Greenhouse post-emergence herbicide trial, Lolium perenne. The settings on record: 200 L/ha, Iodosulfuron-methyl-sodium 10 g Al/ha.
Description: as §1, §2, §3, §4, §5, §6, §7, §8

For test [4], the system named is Sectaria Viridis - SETVI. In words: Greenhouse post-emergence herbicide trial, Sectaria Viridis. The conditions noted are these: 200 L/ha, Nicosulfuron 40 g Al/ha.
Description: as §1, §2, §3, §4, §5, §6, §7, §8

The test system of test [5] is Galium aparine - GALAP. Briefly: Greenhouse post-emergence herbicide trial, Galium aparine. The settings on record: 200 L/ha, Nicosulfuron 40 g Al/ha.
Description: as §1, §2, §3, §4, §5, §6, §7, §8

Structures are written as SMILES.

As to `COC(=O)c1ccc(I)cc1S(=O)(=O)[N-]C(=O)Nc1nc(C)nc(OC)n1.[Na+]` [Iodosulfuron-methyl-sodium, reference compound], the Effectiveness control in test [1] (200 L/ha, 1 DAT) turned out to be 0.00%; in test [1] (200 L/ha, 2 DAT) it was 0.00%; in test [1] (200 L/ha, 7 DAT) it was 0.00%; in test [1] (200 L/ha, 15 DAT), 12.50%; in test [1] (200 L/ha, 21 DAT) it was 13.75%; in test [1] (500 L/ha, 1 DAT) it was 0.00%. The Effectiveness control in test [1] (500 L/ha, 2 DAT) stood at 0.000%; in test [1] (500 L/ha, 7 DAT) it was 5.00%; in test [1] (500 L/ha, 15 DAT) it was 25.00%; in test [1] (500 L/ha, 21 DAT) it was 47.50%; in test [2] (1 DAT), 0.00%; in test [2] (2 DAT) it was 0.00%. Besides, the Effectiveness control in test [2] (7 DAT) turned out to be 6.75%; in test [2] (10 DAT) it was 8.50%; in test [2] (16 DAT), 50.75%; in test [2] (22 DAT) it was 99.00%; in test [2] (28 DAT), 99.00%; in test [3] (1 DAT), 0.00%. The Effectiveness control in test [3] (2 DAT), in test [3] (7 DAT), in test [3] (10 DAT), in test [3] (16 DAT), in test [3] (22 DAT) and in test [3] (28 DAT) was 0.00% throughout.
For the molecule `COc1cc(OC)nc(NC(=O)NS(=O)(=O)c2ncccc2C(=O)N(C)C)n1` [Nicosulfuron, nicosulfuron, reference compound], the Effectiveness control in test [4] (1 DAT) came to 0.00%; in test [4] (2 DAT) it was 0.00%; in test [4] (7 DAT), 5.00%; in test [4] (10 DAT), 7.00%; in test [4] (16 DAT), 10.75%; in test [4] (22 DAT), 7.75%. For the same molecule, the Effectiveness control in test [4] (28 DAT) was determined as 7.00%; in test [5] (1 DAT) it was 0.00%; in test [5] (2 DAT) it was 0.00%; in test [5] (7 DAT), 3.00%; in test [5] (10 DAT), 10.00%; in test [5] (16 DAT), 12.75%. Further, the Effectiveness control in test [5] (22 DAT) and in test [5] (28 DAT) was 12.75% in each case.
